In the assay the target is T1, Ba/F3-FL-TYK2-P760L cells (Homo sapiens, UniProt P29597, P760L, cells depend on it).
T1 construct: BaF3-FL-T2P760L (nM)
In words: Anti-proliferative assay, Ba/F3-FL-TYK2-P760L cells (Cell-Titer Glo). The format is cell-based. Conditions: 72 h, read-out: BaF3-FL-T2P760L IC50. The method, then:
Anti-Proliferative Assay Dimerization domain of Tel protein fused with JAK kinase domain was permanently transduced into Ba/F3 cells, whose proliferation is dependent on JAK activity in the absence of IL-3 induction. These engineered Ba/F3 cells (Ba/F3-FL-TYK2-[…], Ba/F3-TEL-TYK2 and Ba/F3-TEL-JAK2) were used to monitor JAK inhibitory activities of the compounds in the cellular. […] Cells were seeded at 2000/well of white flat bottom 96-well plates. The well containing medium only was used as background control. After 24 h growth, cells were treated with compounds. The test compounds were dissolved in DMSO to a stock concentration of 20 mM. 3-fold serially diluted compounds for 9 concentrations with top concentration of 20 μM was added into the each well. […] The cells continued to grow at 37° C. in 5% CO2 for 72 h after compound treatment. The viability was measured by cellular ATP determination using the Cell-Titer Glo luciferase reagent (Promega). The Luminescence value was recorded by a multi-label reader Envision (PerkinElmer).

Some results are limits rather than exact numbers.

T1 sequence (P29597 whole entry P760L): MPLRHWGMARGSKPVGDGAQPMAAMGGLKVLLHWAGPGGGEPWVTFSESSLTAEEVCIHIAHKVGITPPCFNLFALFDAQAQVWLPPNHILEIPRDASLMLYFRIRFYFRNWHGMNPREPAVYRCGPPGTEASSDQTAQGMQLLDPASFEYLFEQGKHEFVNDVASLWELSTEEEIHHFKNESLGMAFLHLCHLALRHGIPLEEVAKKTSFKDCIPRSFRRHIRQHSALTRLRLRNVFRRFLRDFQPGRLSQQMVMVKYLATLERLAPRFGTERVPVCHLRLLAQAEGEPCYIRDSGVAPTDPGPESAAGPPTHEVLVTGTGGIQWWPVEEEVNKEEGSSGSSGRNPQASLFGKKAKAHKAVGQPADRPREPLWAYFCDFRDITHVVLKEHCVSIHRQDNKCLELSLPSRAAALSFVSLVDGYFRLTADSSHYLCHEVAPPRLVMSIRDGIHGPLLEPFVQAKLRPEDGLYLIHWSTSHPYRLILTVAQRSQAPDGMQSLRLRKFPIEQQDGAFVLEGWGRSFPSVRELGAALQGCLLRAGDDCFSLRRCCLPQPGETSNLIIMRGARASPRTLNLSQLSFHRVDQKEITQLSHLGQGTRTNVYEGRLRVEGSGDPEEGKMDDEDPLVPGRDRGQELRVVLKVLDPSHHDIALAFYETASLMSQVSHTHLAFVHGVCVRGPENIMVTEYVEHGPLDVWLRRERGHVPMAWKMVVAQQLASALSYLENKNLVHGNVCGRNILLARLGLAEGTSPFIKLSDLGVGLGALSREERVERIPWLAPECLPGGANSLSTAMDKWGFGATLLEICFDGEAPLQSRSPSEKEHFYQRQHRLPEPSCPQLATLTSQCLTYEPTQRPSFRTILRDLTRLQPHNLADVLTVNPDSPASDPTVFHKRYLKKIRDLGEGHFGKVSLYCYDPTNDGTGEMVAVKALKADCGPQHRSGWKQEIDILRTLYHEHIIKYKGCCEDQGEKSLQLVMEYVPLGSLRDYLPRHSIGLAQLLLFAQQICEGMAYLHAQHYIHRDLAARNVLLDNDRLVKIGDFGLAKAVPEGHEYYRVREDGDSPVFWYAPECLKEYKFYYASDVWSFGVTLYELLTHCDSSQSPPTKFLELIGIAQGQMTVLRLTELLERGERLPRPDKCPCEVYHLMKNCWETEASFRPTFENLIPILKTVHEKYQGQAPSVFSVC

Regarding `CNC(=O)c1cnc(NC(=O)C2CC2)cc1Nc1ccc2nn3c(c2c1OC)CCC3` [Example 156, 6-(Cyclopropanecarboxamido)-4-((9-methoxy-2,3-dihydro-1H-pyrrolo[1,2-b]indazol-8-yl)amino)-N-methylnicotinamide], the GI50 is 2900 nM.
As for `CNC(=O)c1cnc(Nc2ccc(F)cn2)cc1Nc1cccc(C2(F)CC2)c1OC` [Example 56, 4-((3-(1-Fluorocyclopropyl)-2-methoxyphenyl)amino)-6-((5-fluoropyridin-2-yl)amino)-N-methylnicotinamide], the GI50 came out at 285 nM.
Next, `[2H]C([2H])([2H])NC(=O)c1cnc(NC(=O)C2CC2)cc1Nc1csc2c(Cl)cn(C(C)C)c(=O)c12` [Example 175, 4-((7-Chloro-5-isopropyl-4-oxo-4,5-dihydrothieno[3,2-c]pyridin-3-yl)amino)-6-(cyclopropanecarboxamido)-N-(methyl-d3)nicotinamide]: 124 nM; `[2H]C([2H])([2H])NC(=O)c1cnc(NC(=O)C2CC2)cc1Nc1cc(F)c2cnn(C([2H])([2H])C([2H])([2H])[2H])c2c1OC` [Example 142, 6-(Cyclopropanecarboxamido)-4-((1-(ethyl-d5)-4-fluoro-7-methoxy-1H-indazol-6-yl)amino)-N-(methyl-d3)nicotinamide]: 169 nM.
Next, `CNC(=O)c1cnc2nc1Nc1cc(cc(-c3ncn(C)n3)c1OC)COCc1cc(cc(C(F)(F)F)c1)N2` [Example 37, 10-Methoxy-N-methyl-11-(1-methyl-1H-1,2,4-triazol-3-yl)-19-(trifluoromethyl)-15-oxa-2,4,8,23-tetraazatetracyclo[15.3.1.1^{3,7}.1^{9,13}]tricosa-1(20),3,5,7(23),9(22),10,12,17(21),18-nonaene-6-carboxamide]: 988 nM.
Under `CCN1C(=O)C(F)(F)c2ccc(Nc3cc(NC(=O)C4CC4)ncc3C(=O)NC)c(OC)c21` [Example 204, 6-(Cyclopropanecarboxamido)-4-((1-ethyl-3,3-difluoro-7-methoxy-2-oxoindolin-6-yl)amino)-N-methylnicotinamide] stands 327 nM; under `CNC(=O)c1cnc(Nc2ccc(F)cc2)nc1Nc1coc2ccn(C)c(=O)c12` [Example 38, 2-((4-Fluorophenyl)amino)-N-methyl-4-((5-methyl-4-oxo-4,5-dihydrofuro[3,2-c]pyridin-3-yl)amino)pyrimidine-5-carboxamide], 831 nM; under `[2H]C([2H])([2H])NC(=O)c1cnc(Nc2ccc(F)cn2)cc1Nc1ccn2ncc(C)c2c1OC` [Example 222, 6-((5-Fluoropyridin-2-yl)amino)-4-((4-methoxy-3-methylpyrazolo[1,5-a]pyridin-5-yl)amino)-N-(methyl-d3)nicotinamide], 155 nM.
For the compound `[2H]C([2H])([2H])NC(=O)c1cnc(NC(=O)C2CC2)cc1Nc1ccc2cnn(C3CC3)c2c1OC([2H])([2H])[2H]` [Example 145, 6-(Cyclopropanecarboxamido)-4-((1-cyclopropyl-7-(methoxy-d3)-1H-indazol-6-yl)amino)-N-(methyl-d3)nicotinamide], the GI50 is 83.6 nM.
Under `[2H]C([2H])([2H])NC(=O)c1nnc2cc1Nc1cc(cc(-c3ncn(C)n3)c1OC)CNCc1nc(ccc1F)N2` [Example 87, 18-Fluoro-10-methoxy-N-(methyl-d3)-11-(1-methyl-1H-1,2,4-triazol-3-yl)-2,4,5,8,15,21-hexaazatetracyclo[15.3.1.1^{3,7}.1^{9,13}]tricosa-1(20),3,5,7(23),9(22),10,12,17(21),18-nonaene-6-carboxamide] stands 584 nM.
As to `CCn1ncc2scc(Nc3cc(NC(=O)C4CC4)ncc3C(=O)OC)c2c1=O` [Example 178, Methyl 6-(cyclopropanecarboxamido)-4-((5-ethyl-4-oxo-4,5-dihydrothieno[2,3-d]pyridazin-3-yl)amino)nicotinate], the GI50 amounted to 287 nM.
For `[2H]C([2H])([2H])N1Cc2nc(NC(=O)C3CC3)cc(Nc3ccc4cnn(CC)c4c3OC)c2C1=O` [Example 210, N-(4-((1-ethyl-7-methoxy-1H-indazol-6-yl)amino)-6-(methyl-d3)-5-oxo-6,7-dihydro-5H-pyrrolo[3,4-b]pyridin-2-yl)cyclopropanecarboxamide], the GI50 is more than 5000 nM.
Under `[2H]C([2H])([2H])NC(=O)c1cnc(NC(=O)C2CC2)cc1Nc1cn(C)c2ccn(CC3CC3)c(=O)c12` [Example 106, 6-(Cyclopropanecarboxamido)-4-((5-(cyclopropylmethyl)-1-methyl-4-oxo-4,5-dihydro-1H-pyrrolo[3,2-c]pyridin-3-yl)amino)-N-(methyl-d3)nicotinamide] stands 206 nM.
Under `[2H]C([2H])([2H])NC(=O)c1cnc(NC(=O)C2CC2)cc1Nc1csc2cnn(C(C)C(F)(F)F)c(=O)c12` (single isomer, unassigned) [Example 185A, (R*)-6-(cyclopropanecarboxamido)-N-(methyl-d3)-4-((4-oxo-5-(1,1,1-trifluoropropan-2-yl)-4,5-dihydrothieno[2,3-d]pyridazin-3-yl)amino)nicotinamide] stands 205 nM.
Next, `CNC(=O)c1cnc(NC(=O)C2CC2)cc1Nc1csc2c(C)cn(C)c(=O)c12` [Example 188, 6-(Cyclopropanecarboxamido)-4-((5,7-dimethyl-4-oxo-4,5-dihydrothieno[3,2-c]pyridin-3-yl)amino)-N-methylnicotinamide]: 267 nM.
Regarding `[2H]C([2H])([2H])NC(=O)c1cnc(Nc2ccn(C3CC3)n2)cc1Nc1ccc2cnn(CC)c2c1OC` [Example 138, 6-((1-Cyclopropyl-1H-pyrazol-3-yl)amino)-4-((1-ethyl-7-methoxy-1H-indazol-6-yl)amino)-N-(methyl-d3)nicotinamide], the GI50 was found to be 88.8 nM.
On to `[2H]C([2H])([2H])NC(=O)c1cnc(NC(=O)C2CC2)cc1Nc1nn(CCOC)c2ccn(CC(F)(F)F)c(=O)c12` [Example 54, 6-(Cyclopropanecarboxamido)-4-((1-(2-methoxyethyl)-4-oxo-5-(2,2,2-trifluoroethyl)-4,5-dihydro-1H-pyrazolo[4,3-c]pyridin-3-yl)amino)-N-(methyl-d3)nicotinamide], for which the GI50 turned out to be 1090 nM.
Under `[2H]C([2H])([2H])NC(=O)c1cnc(NC(=O)C2CC2)cc1Nc1ccc2nnn(CC)c2c1OC` [Example 164, 6-(Cyclopropanecarbonylamino)-4-[(3-ethyl-4-methoxy-benzotriazol-5-yl)amino]-N-(trideuteriomethyl)pyridine-3-carboxamide] stands 349 nM; under `[2H]C([2H])([2H])NC(=O)c1cnc(Nc2ccc(F)cc2F)nc1Nc1cccc(-c2ncn(C)n2)c1OC` [Example 63, 2-((2,4-Difluorophenyl)amino)-4-((2-methoxy-3-(1-methyl-1H-1,2,4-triazol-3-yl)phenyl)amino)-N-(methyl-d3)pyrimidine-5-carboxamide], 796 nM; under `CNC(=O)c1cnc(NC(=O)C2CC2)cc1Nc1cc(Br)c2nn3c(c2c1OC)CCC3` [Example 155, 4-((6-Bromo-9-methoxy-2,3-dihydro-1H-pyrrolo[1,2-b]indazol-8-yl)amino)-6-(cyclopropanecarboxamido)-N-methylnicotinamide], 902 nM.
Under `[2H]C([2H])([2H])NC(=O)c1cnc(NC(=O)C2CC2)cc1Nc1ccc2cnn(C3CCOCC3)c2c1OC` [Example 127, 6-(Cyclopropanecarboxamido)-4-((7-methoxy-1-(tetrahydro-2H-pyran-4-yl)-1H-indazol-6-yl)amino)-N-(methyl-d3)nicotinamide] stands 378 nM; under `[2H]C([2H])([2H])NC(=O)c1cnc(NC(=O)C2CC2)cc1Nc1ccn2ncc(C([2H])([2H])[2H])c2c1OC` [Example 220, 6-(Cyclopropanecarboxamido)-4-((4-methoxy-3-(methyl-d3)pyrazolo[1,5-a]pyridin-5-yl)amino)-N-(methyl-d3)nicotinamide], 541 nM.
Next, `[2H]C([2H])([2H])NC(=O)c1cnc(NC(=O)C2CC2)cc1Nc1nn(C)c2ccn(CC3CC3(F)F)c(=O)c12` (stereo not shown) [Example 107, 6-(Cyclopropanecarboxamido)-4-((5-((2,2-difluorocyclopropyl)methyl)-1-methyl-4-oxo-4,5-dihydro-1H-pyrazolo[4,3-c]pyridin-3-yl)amino)-N-(methyl-d3)nicotinamide]: 2100 nM; `[2H]C([2H])([2H])NC(=O)c1cnc(NC(=O)C2CC2)cc1Nc1cn(C)c2ccn(-c3cnn(C)c3)c(=O)c12` [Example 120, 6-(Cyclopropanecarboxamido)-N-(methyl-d3)-4-((1-methyl-5-(1-methyl-1H-pyrazol-4-yl)-4-oxo-4,5-dihydro-1H-pyrrolo[3,2-c]pyridin-3-yl)amino)nicotinamide]: 1120 nM; `[2H]C([2H])([2H])NC(=O)c1cnc(NC(=O)[C@H]2C[C@H]2F)cc1Nc1cn(C)c2ccn(CC)c(=O)c12` [Example 101, 4-[(5-Ethyl-1-methyl-4-oxo-pyrrolo[3,2-c]pyridin-3-yl)amino]-6-[[(1R,2R)-2-fluorocyclopropanecarbonyl]amino]-N-(methyl-d3)pyridine-3-carboxamide]: 809 nM.

The values above are taken from patent US20250115597A1, “TYK2 INHIBITORS AND COMPOSITIONS AND METHODS THEREOF” (LYNK PHARMACEUTICALS CO. LTD., priority 2021, published 2025).
